Measurements reported in ChEMBL document CHEMBL3885861, “Open TG-GATES”.

Species: Rattus norvegicus
Assay: Open TG-GATES - Regimen: Single
Format: toxicity, organism-based, Sprague-Dawley
Parameters: regimen Single, gender Male, age 6 weeks
Details: in vivo, po, 30 mg/kg, route gavage, dose level Low; for APTT / Bas / Eos / Fbg / Hb / Ht / Lym / MCH / MCHC / MCV / Mono / Neu / PT / Plat / RBC / Ret / WBC: tissue Blood; for KIDNEY_L / KIDNEY_R / KIDNEY_TOTAL: tissue Kidney; for LIVER: tissue Liver; for A/G / ALP / ALT / AST / BUN / CRE / Ca / Cl / DBIL / GLC / IP / K / LDH / Na / PL / RALB / TBIL / TC / TG / TP / gamma-GTP: tissue Plasma

CC[C@H]1[C@@H]2C[C@H]3[C@@H]4N(C)c5ccccc5[C@]45C[C@@H]([C@@H]2[C@H]5O)N3[C@@H]1O [AJMALINE]
TERMINAL_BW (3 h): 194.7 g | APTT (3 h): 16.9 s | Bas (3 h): 0% | Eos (3 h): 1% | Fbg (3 h): 196.4 mg/dL | Hb (3 h): 12.8 g/dL | Ht (3 h): 39.1% | Lym (3 h): 78.6% | MCH (3 h): 21.7 pg | MCHC (3 h): 32.8% | MCV (3 h): 66.3 fL | Mono (3 h): 8.8% | Neu (3 h): 12% | PT (3 h): 11.6 s | Plat (3 h): 121.5 x10_4/uL | RBC (3 h): 590.6 x10_4/ul | Ret (3 h): 12.4% | WBC (3 h): 114.3 x10_2/uL | KIDNEY_L (3 h): 0.9 g | KIDNEY_R (3 h): 0.9 g | KIDNEY_TOTAL (3 h): 1.8 g | LIVER (3 h): 9.1 g | A/G (3 h): 2.3 | ALP (3 h): 821 IU/L | ALT (3 h): 34.8 IU/L | AST (3 h): 69.8 IU/L | BUN (3 h): 12.2 mg/dL | CRE (3 h): 0.4 mg/dL | Ca (3 h): 11.3 mg/dL | Cl (3 h): 102.4 meq/L | DBIL (3 h): 0.052 mg/dL | GLC (3 h): 193.6 mg/dL | IP (3 h): 9 mg/dL | K (3 h): 4.5 meq/L | LDH (3 h): 108 IU/L | Na (3 h): 137.8 meq/L | PL (3 h): 141.6 mg/dL | RALB (3 h): 3.7 g/dL | TBIL (3 h): 0.4 mg/dL | TC (3 h): 77.4 mg/dL | TG (3 h): 55.8 mg/dL | TP (3 h): 5.3 g/dL | gamma-GTP (3 h): 1.6 IU/L | TERMINAL_BW (6 h): 190.9 g | APTT (6 h): 17.2 s | Bas (6 h): 0% | Eos (6 h): 1.2% | Fbg (6 h): 205 mg/dL | Hb (6 h): 12.8 g/dL | Ht (6 h): 38.9% | Lym (6 h): 74% | MCH (6 h): 22.2 pg | MCHC (6 h): 33% | MCV (6 h): 67.2 fL | Mono (6 h): 7% | Neu (6 h): 18.2% | PT (6 h): 11.8 s | Plat (6 h): 114.2 x10_4/uL | RBC (6 h): 578.4 x10_4/ul | Ret (6 h): 11.9% | WBC (6 h): 89.1 x10_2/uL | KIDNEY_L (6 h): 0.9 g | KIDNEY_R (6 h): 0.9 g | KIDNEY_TOTAL (6 h): 1.8 g | LIVER (6 h): 8.4 g | A/G (6 h): 2 | ALP (6 h): 865.4 IU/L | ALT (6 h): 40.6 IU/L | AST (6 h): 70 IU/L | BUN (6 h): 9 mg/dL | CRE (6 h): 0.5 mg/dL | Ca (6 h): 10.8 mg/dL | Cl (6 h): 102.6 meq/L | DBIL (6 h): 0.068 mg/dL | GLC (6 h): 195.8 mg/dL | IP (6 h): 9.7 mg/dL | K (6 h): 4.6 meq/L | LDH (6 h): 104.8 IU/L | Na (6 h): 138.8 meq/L | PL (6 h): 141.4 mg/dL | RALB (6 h): 3.5 g/dL | TBIL (6 h): 0.4 mg/dL | TC (6 h): 82.8 mg/dL | TG (6 h): 46.8 mg/dL | TP (6 h): 5.3 g/dL | gamma-GTP (6 h): 1.6 IU/L | TERMINAL_BW (9 h): 190.6 g | APTT (9 h): 17.1 s | Bas (9 h): 0% | Eos (9 h): 1% | Fbg (9 h): 201.2 mg/dL | Hb (9 h): 12.6 g/dL | Ht (9 h): 38.1% | Lym (9 h): 70.4% | MCH (9 h): 21.6 pg | MCHC (9 h): 33% | MCV (9 h): 65.6 fL | Mono (9 h): 8% | Neu (9 h): 21% | PT (9 h): 12.1 s | Plat (9 h): 119.4 x10_4/uL | RBC (9 h): 580.8 x10_4/ul | Ret (9 h): 10.6% | WBC (9 h): 83.7 x10_2/uL | KIDNEY_L (9 h): 0.9 g | KIDNEY_R (9 h): 0.9 g | KIDNEY_TOTAL (9 h): 1.8 g | LIVER (9 h): 8.1 g | A/G (9 h): 2.2 | ALP (9 h): 827.2 IU/L | ALT (9 h): 34.6 IU/L | AST (9 h): 64.6 IU/L | BUN (9 h): 12.2 mg/dL | CRE (9 h): 0.6 mg/dL | Ca (9 h): 10.4 mg/dL | Cl (9 h): 104.8 meq/L | DBIL (9 h): 0.1 mg/dL | GLC (9 h): 199.2 mg/dL | IP (9 h): 10.3 mg/dL | K (9 h): 5 meq/L | LDH (9 h): 108.2 IU/L | Na (9 h): 139 meq/L | PL (9 h): 132 mg/dL | RALB (9 h): 3.6 g/dL | TBIL (9 h): 0.4 mg/dL | TC (9 h): 82.2 mg/dL | TG (9 h): 48.4 mg/dL | TP (9 h): 5.2 g/dL | gamma-GTP (9 h): 0.8 IU/L | TERMINAL_BW (24 h): 210.7 g | APTT (24 h): 16.3 s | Bas (24 h): 0% | Eos (24 h): 1% | Fbg (24 h): 225 mg/dL | Hb (24 h): 12.8 g/dL | Ht (24 h): 38.6% | Lym (24 h): 75.8% | MCH (24 h): 21.7 pg | MCHC (24 h): 33.2% | MCV (24 h): 65.3 fL | Mono (24 h): 7.6% | Neu (24 h): 15.2% | PT (24 h): 11.5 s | Plat (24 h): 112.6 x10_4/uL | RBC (24 h): 590.8 x10_4/ul | Ret (24 h): 10.5% | WBC (24 h): 105.8 x10_2/uL | KIDNEY_L (24 h): 1 g | KIDNEY_R (24 h): 1 g | KIDNEY_TOTAL (24 h): 2 g | LIVER (24 h): 10.6 g | A/G (24 h): 2.1 | ALP (24 h): 875.4 IU/L | ALT (24 h): 36.8 IU/L | AST (24 h): 66.2 IU/L | BUN (24 h): 15.8 mg/dL | CRE (24 h): 0.6 mg/dL | Ca (24 h): 11.2 mg/dL | Cl (24 h): 100.8 meq/L | DBIL (24 h): 0.016 mg/dL | GLC (24 h): 207.6 mg/dL | IP (24 h): 8.4 mg/dL | K (24 h): 4.5 meq/L | LDH (24 h): 120.6 IU/L | Na (24 h): 140 meq/L | PL (24 h): 156.4 mg/dL | RALB (24 h): 3.8 g/dL | TBIL (24 h): 0.3 mg/dL | TC (24 h): 86.4 mg/dL | TG (24 h): 114.4 mg/dL | TP (24 h): 5.6 g/dL | gamma-GTP (24 h): 1.4 IU/L
